Experiments:
Format in all cases: cell-based
Settings in all cases: 0.5 h
[1] = molecular target: T1, ATP-dependent translocase ABCB1 (Homo sapiens, UniProt P08183); assay: Inhibition of ABCB1 (unknown origin) expressed in Flp-In-293 cells assessed as increase in calcein-AM uptake at 10 uM preincubated for 30 mins followed by calcein-AM addition measured after 30 mins by fluorescence spectrometric method relative to control
[2] = molecular target: T1, ATP-dependent translocase ABCB1; assay: Inhibition of ABCB1 (unknown origin) expressed in Flp-In-293 cells assessed as increase in calcein-AM uptake at 5 uM preincubated for 30 mins followed by calcein-AM addition measured after 30 mins by fluorescence spectrometric method relative to control
[3] = molecular target: T1, ATP-dependent translocase ABCB1; assay: Inhibition of ABCB1 (unknown origin) expressed in Flp-In-293 cells assessed as increase in calcein-AM uptake at 2.5 uM preincubated for 30 mins followed by calcein-AM addition measured after 30 mins by fluorescence spectrometric method relative to control

T1 sequence (P08183 whole entry): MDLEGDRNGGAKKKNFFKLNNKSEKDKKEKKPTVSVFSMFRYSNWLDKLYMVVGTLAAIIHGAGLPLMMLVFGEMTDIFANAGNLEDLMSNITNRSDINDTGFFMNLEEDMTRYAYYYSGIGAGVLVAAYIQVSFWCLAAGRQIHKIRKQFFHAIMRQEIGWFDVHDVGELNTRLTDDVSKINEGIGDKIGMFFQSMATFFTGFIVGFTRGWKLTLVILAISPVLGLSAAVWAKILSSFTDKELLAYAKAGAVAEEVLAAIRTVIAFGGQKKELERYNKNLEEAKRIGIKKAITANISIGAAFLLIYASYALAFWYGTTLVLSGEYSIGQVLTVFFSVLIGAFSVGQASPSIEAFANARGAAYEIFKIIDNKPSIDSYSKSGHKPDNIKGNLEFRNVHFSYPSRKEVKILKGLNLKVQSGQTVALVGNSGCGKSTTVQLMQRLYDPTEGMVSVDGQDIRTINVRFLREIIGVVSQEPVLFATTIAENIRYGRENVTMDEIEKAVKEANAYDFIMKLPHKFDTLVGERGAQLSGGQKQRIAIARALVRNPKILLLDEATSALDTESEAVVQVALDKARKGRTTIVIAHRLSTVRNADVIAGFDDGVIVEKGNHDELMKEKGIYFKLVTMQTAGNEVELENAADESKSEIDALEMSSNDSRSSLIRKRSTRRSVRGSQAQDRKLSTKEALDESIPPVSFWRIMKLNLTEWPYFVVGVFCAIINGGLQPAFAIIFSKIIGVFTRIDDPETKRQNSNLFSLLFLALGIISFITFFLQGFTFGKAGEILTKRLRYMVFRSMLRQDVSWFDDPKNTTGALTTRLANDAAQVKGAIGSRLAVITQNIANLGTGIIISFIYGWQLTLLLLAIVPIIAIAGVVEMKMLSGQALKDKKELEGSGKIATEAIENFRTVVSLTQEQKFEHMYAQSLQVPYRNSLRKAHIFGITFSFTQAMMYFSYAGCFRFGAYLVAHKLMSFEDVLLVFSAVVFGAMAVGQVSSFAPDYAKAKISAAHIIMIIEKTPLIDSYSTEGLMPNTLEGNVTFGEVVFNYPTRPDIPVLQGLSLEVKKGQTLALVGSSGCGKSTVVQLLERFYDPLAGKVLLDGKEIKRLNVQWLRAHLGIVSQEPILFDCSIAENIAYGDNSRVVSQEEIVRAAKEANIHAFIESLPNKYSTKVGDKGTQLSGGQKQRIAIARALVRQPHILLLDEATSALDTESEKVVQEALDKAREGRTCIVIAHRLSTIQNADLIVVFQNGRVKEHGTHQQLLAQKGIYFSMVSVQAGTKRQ

Row | SMILES | fold change (FC) [1] | fold change (FC) [2] | fold change (FC) [3]
1 | COc1ccc(-c2cc(OCc3cccnc3)c3c(-c4cccs4)c(N)oc3c2)cc1 | 4.72 | 3.68 | –
2 | COc1ccc(-c2cc(OCCN3CCCCC3)c3c(-c4cccs4)c(N)oc3c2)cc1OC | – | 6.06 | –
3 | CCN(CC)CCOc1cc(-c2ccc(OC)cc2)cc2oc(N)c(-c3cccs3)c12 | 10.14 | 8.85 | –
4 | CC(=O)Oc1cccc2oc(N)c(-c3cccs3)c12 | – | 1.12 | 1.05
5 | COc1ccc(-c2cc(OCc3ccccn3)c3c(-c4cccs4)c(N)oc3c2)cc1 | 4.33 | 3.22 | –
6 | COc1ccc(-c2cc(OCCN3CCCCC3)c3c(-c4cccs4)c(N)oc3c2)cc1 | 5.66 | 7.53 | –
7 | COc1ccc(-c2cc(OC(C)=O)c3c(-c4ccc(C)cc4)c(N)oc3c2)cc1 | – | 1.86 | 1.45
8 | COc1ccc(-c2cc(OC(C)=O)c3c(-c4ccc5c(c4)OCO5)c(N)oc3c2)cc1 | – | 1.48 | 1.3
9 | COc1ccc(-c2cc(OCCN3CCOCC3)c3c(-c4cccs4)c(N)oc3c2)cc1 | 8.86 | 6.64 | –
10 | COc1ccc(-c2cc(OC(C)=O)c3c(-c4ccccc4)c(N)oc3c2)cc1 | – | 2.27 | 1.7
11 | COc1ccc(-c2cc(OC(C)=O)c3c(-c4cccs4)c(N)oc3c2)cc1 | – | 2.2 | 1.9
12 | CC(=O)Oc1cc(-c2ccccc2)cc2oc(N)c(-c3cccs3)c12 | – | 0.98 | 0.95
13 | COc1ccc(-c2cc(OCCN3CCOCC3)c3c(-c4cccs4)c(N)oc3c2)cc1OC | 8.85 | 8.42 | –
14 | COc1ccc(-c2cc(OC(C)=O)c3c(-c4c(Cl)cccc4Cl)c(N)oc3c2)cc1 | – | 1.81 | 1.34
15 | COc1ccc(-c2cc(OC(C)=O)c3c(-c4cccnc4)c(N)oc3c2)cc1 | – | 1.13 | 0.89
16 | COc1ccc(-c2cc(OC(C)=O)c3c(-c4ccc(F)cc4)c(N)oc3c2)cc1 | – | 1.26 | 0.94
17 | COc1ccc(-c2cc(OC(C)=O)c3c(-c4ccccc4OC)c(N)oc3c2)cc1 | – | 1.49 | 1.32
18 | CC(=O)Oc1cc(-c2ccc3c(c2)OCO3)cc2oc(N)c(-c3cccs3)c12 | – | 0.86 | 0.96
19 | COc1ccc(-c2cc(OC(C)=O)c3c(-c4cccs4)c(N)oc3c2)cc1OC | – | 4.35 | 3.75
20 | COc1ccc(-c2cc(O)c3c(-c4cccs4)c(N)oc3c2)cc1OC | – | 1.15 | –
21 | COc1ccc(-c2cc(OC(C)=O)c3c(-c4ccc(Cl)c(Cl)c4)c(N)oc3c2)cc1 | – | 1.83 | 1.82
22 | COc1ccc(-c2cc(OCCCN3CCCCC3)c3c(-c4cccs4)c(N)oc3c2)cc1OC | – | 4.55 | –
23 | COc1ccc(-c2cc(OC(C)=O)c3c(-c4cccc(Cl)c4)c(N)oc3c2)cc1 | – | 2.45 | 1.85
24 | COc1ccc(-c2cc(O)c3c(-c4cccs4)c(N)oc3c2)cc1 | – | 1.62 | 1.46
25 | COc1ccc(-c2cc(OC(C)=O)c3c(-c4ccccc4Cl)c(N)oc3c2)cc1 | – | 1.59 | 1.3
26 | COc1ccc(-c2cc(OC(C)=O)c3c(-c4ccc(OC)cc4)c(N)oc3c2)cc1 | – | 1.75 | 1.17
27 | COc1ccc(-c2cc(OC(C)=O)c3c(-c4ccccc4F)c(N)oc3c2)cc1 | – | 1.82 | 1.31
28 | COc1ccc(-c2cc(OC(C)=O)c3c(-c4ccc(Cl)cc4)c(N)oc3c2)cc1 | – | 2.2 | 1.52
29 | COc1ccc(-c2cc(OC(C)=O)c3c(-c4c(F)cccc4Cl)c(N)oc3c2)cc1 | – | 1.61 | 1.35
